Values of other authors in US7691903B2, “Oxidation-sensitive hydrophilic active principle containing composition and use thereof” (L'Oreal, priority 2002, dated 2010).

Conditions: ascorbic acid derivatives; J. Am. Acad. Dermatol., 1996, 34, 29-33

bioavailability: very low
SMILES: O=C1O[C@H]([C@@H](O)CO)C([O-])=C1OP(=O)([O-])[O-].O=C1O[C@H]([C@@H](O)CO)C([O-])=C1OP(=O)([O-])[O-].[Mg+2].[Mg+2].[Mg+2] [magnesium ascorbyl phosphate]
